Source: US6528492B1, “SINGLE-STEP PROCESS FOR PREPARING 7, 16-DEOXY-2-AZA-10-0-CLADINOSIL-12-0-DESOSAMINIL-4, 5-DIHYDROXY-6-ETHYL-3,5,9,11,13,15-HEXAMETHYLBICYCLE (11.2.1) HEXADECA-1(2)-EN-ONA AND OBTAINING A NEW FORM OF 9-DEOXO-9A-METHYL-9A-AZA-9A-HOMOERYTHROMYCIN A” (Instituto de Investigacion en Quimica Aplicada S.C., priority 2001, dated 2003)

Tests used:
[1] = Moisture uptake on exposure to room conditions; assay type: physicochemical; settings: exposed to room conditions, relative humidity average of 45%, ten days
Source text: In addition to its novel features, the physical form obtained has physical characteristics that make it useful in preparing pharmaceutical preparations, with significant advantages over the forms existing to date. […] In contrast, the anhydrous crystalline form obtained here, when exposed to room conditions, at an relative humidity average of 45%, for ten days, increases its moisture content by only 0.55%, while a reference sample of dihydrated azithromycin increased its moisture content by 1% in the same time.

[2] = Dissolution profile of 500 mg azithromycin tablets; assay type: physicochemical; settings: total weight one gram, solvents and procedure similar to capsules in U.S. Pharmacopoeia 2000, page 186
Protocol: In order to test the performance of anhydrous crystalline azithromycin in producing pharmaceutical preparations, 500 mg azithromycin tablets were made with total weight of one gram. The dissolution profile of these tablets was determined, and compared with the dissolution profile of tablets made with the same preparation using dihydrated azithromycin. The used solvents, and the procedure followed, were similar to those indicated for capsules in U.S. Pharmacopoeia 2000, page 186. […] This property gives the anhydrous crystalline form reported herein significant practical advantages over the dihydrated forms, given that increased solubility of the pharmaceutical preparation generally implies greater bioavailabilty of the drug and in consequence increases its therapeutic effectiveness.

[3] = as indicated by patent PCT/US87/0612; cited from earlier work

| Structure (SMILES) | increase of moisture content [1] [%] | dissolution values of tablets compared with tablets made with dihydrated azithromycin [2] | hygroscopicity [3] |
| --- | --- | --- | --- |
| CCC1OC(=O)C(C)C(OC2CC(C)(OC)C(O)C(C)O2)C(C)C(OC2OC(C)CC(N(C)C)C2O)C(C)(O)CC(C)CN(C)C(C)C(O)C1(C)O (stereo not shown) [anhydrous crystalline form, 9-deoxo-9a-methyl-9a-aza-9a-homoerythromycin A] | 0.55 | significantly higher |  |
| CCC1OC(=O)C(C)C(OC2CC(C)(OC)C(O)C(C)O2)C(C)C(OC2OC(C)CC(N(C)C)C2O)C(C)(O)CC(C)CN(C)C(C)C(O)C1(C)O (stereo not shown) [dihydrated azithromycin, 9-deoxo-9a-methyl-9a-aza-9a-homoerythromycin A] | 1 |  |  |
| CCC1OC(=O)C(C)C(OC2CC(C)(OC)C(O)C(C)O2)C(C)C(OC2OC(C)CC(N(C)C)C2O)C(C)(O)CC(C)CN(C)C(C)C(O)C1(C)O (stereo not shown) [forms reported by Kobrehel et al., 9-deoxo-9a-methyl-9a-aza-9a-homoerythromycin A] |  |  | highly hygroscopes |
